Activity calls are given as the source filed them. The calls are words filed in the database; no cut-off is given here.
These compounds were tested against T1, Tyrosine-protein kinase receptor TYRO3 (Homo sapiens) (UniProt Q06418) (assay: Inhibition of recombinant human Tyro3 kinase domain using poly (Glu, Ala, Tyr) as substrate up to 50 uM after 1.5 hrs by ELISA).
T1 sequence (whole entry): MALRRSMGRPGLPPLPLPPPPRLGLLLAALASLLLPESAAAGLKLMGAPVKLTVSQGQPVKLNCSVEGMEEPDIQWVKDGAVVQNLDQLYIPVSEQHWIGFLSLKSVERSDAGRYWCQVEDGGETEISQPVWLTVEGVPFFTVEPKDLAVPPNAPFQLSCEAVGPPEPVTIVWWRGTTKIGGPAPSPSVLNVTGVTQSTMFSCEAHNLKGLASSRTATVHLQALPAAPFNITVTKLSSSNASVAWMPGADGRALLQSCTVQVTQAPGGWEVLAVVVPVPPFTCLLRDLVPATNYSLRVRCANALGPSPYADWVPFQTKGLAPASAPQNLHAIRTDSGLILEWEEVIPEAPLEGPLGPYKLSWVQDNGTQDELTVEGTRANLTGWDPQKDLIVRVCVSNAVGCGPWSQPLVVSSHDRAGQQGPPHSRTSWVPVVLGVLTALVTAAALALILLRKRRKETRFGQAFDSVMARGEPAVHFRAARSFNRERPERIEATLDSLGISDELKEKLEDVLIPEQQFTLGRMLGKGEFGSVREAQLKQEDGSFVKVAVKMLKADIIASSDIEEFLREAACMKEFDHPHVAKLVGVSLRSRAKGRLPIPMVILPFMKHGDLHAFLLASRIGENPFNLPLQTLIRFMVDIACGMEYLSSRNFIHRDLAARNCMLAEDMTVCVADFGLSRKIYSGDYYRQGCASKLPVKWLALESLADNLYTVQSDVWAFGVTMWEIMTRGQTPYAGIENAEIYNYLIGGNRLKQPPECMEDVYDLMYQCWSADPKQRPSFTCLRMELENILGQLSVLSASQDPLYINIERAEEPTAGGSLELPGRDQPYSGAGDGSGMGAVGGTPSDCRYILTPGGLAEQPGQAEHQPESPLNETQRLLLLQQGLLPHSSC

| inhibition | SMILES |
| --- | --- |
| inactive | Cc1cc(F)ccc1-n1cccc(C(=O)Nc2ccc(Oc3cc(On4nnc5ccccc54)ncn3)c(F)c2)c1=O |
| inactive | COc1ccc(-n2cccc(C(=O)Nc3ccc(Oc4cc(N)ncn4)c(F)c3)c2=O)c(F)c1 |
| inactive | COc1ccc(-n2cccc(C(=O)Nc3ccc(Oc4cc(On5nnc6ccccc65)ncn4)c(F)c3)c2=O)c(F)c1 |
| inactive | COc1ccc(CNc2cc(Oc3ccc(NC(=O)c4cccn(-c5ccc(F)cc5)c4=O)cc3F)ncn2)cc1 |
| inactive | Nc1cc(Oc2ccc(NC(=O)c3cccn(-c4ccc(F)c(F)c4)c3=O)cc2F)ncn1 |
| inactive | O=C(Nc1ccc(Oc2cc(On3nnc4ccccc43)ncn2)c(F)c1)c1cccn(-c2ccc(F)c(F)c2)c1=O |
| inactive | COc1ccc(CNc2nccc(Oc3ccc(NC(=O)c4cccn(-c5ccc(F)cc5)c4=O)cc3F)n2)cc1 |
| inactive | CNc1cc(Oc2ccc(NC(=O)c3cccn(-c4ccc(F)cc4)c3=O)cc2F)ncn1 |
| inactive | O=C(Nc1ccc(Oc2cc(On3nnc4ccccc43)ncn2)c(F)c1)c1cccn(-c2ccc(F)cc2F)c1=O |
| inactive | O=C(Nc1ccc(Oc2cc(On3nnc4ccccc43)ncn2)c(F)c1)c1cccn(-c2ccc(F)cc2)c1=O |
| inactive | CNc1nccc(Oc2ccc(NC(=O)c3cccn(-c4ccc(F)cc4)c3=O)cc2F)n1 |
| inactive | O=C(Nc1ccc(Oc2cc(Cl)ncn2)c(F)c1)c1cccn(-c2ccc(F)cc2)c1=O |

From ChEMBL document CHEMBL3091325, “New aminopyrimidine derivatives as inhibitors of the TAM family” (Eur J Med Chem, 2013)
